# Experimental data published in PubChem BioAssay AID1963445 (Molecular Pharmacology Branch, DTP, NCI, 2024).
# System: MCF7 complex spheroid growth, % test/control
# Assay: Anticancer human tumor MCF7 cell line growth inhibition [Asc];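 note: spheroids exposed to compounds for 7 days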;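 for viability, T/C: 100% = DMSO vehicle control wells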
# Conditions: for IC50: curve of first compound; for viability, T/C: stronger effect = lower value
# How it was run: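 Concentration series start at each agent's clinical Cmax, or at 10 microM when none is established, and drop in half-log steps; agents are applied alone or together to complex spheroids built with HUVEC and hMSC.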
structure (smiles),measurement,setting,value
NC1CCC(NC2CC2c2ccccc2)CC1 (centres undefined) + CCN1C(C(=O)NC23CCC(C(=O)O)(CC2)CC3)C(c2cccc(Cl)c2F)C2(C(=O)Nc3cc(Cl)ccc32)C12CCCCC2,IC50,second compound 0.00949 µM,> 100 nM
same,IC50,second compound 0.03 µM,> 100 nM
same,IC50,second compound 0.0949 µM,> 100 nM
same,IC50,second compound 0.3 µM,< 0.316 nM
same,IC50,second compound 0.949 µM,< 0.316 nM
same,IC50,second compound 3 µM,< 0.316 nM
same,"viability, T/C","second compound 0.00949 µM, first compound 0.000316 µM",131%
same,"viability, T/C","second compound 0.00949 µM, first compound 0.001 µM",116%
same,"viability, T/C","second compound 0.00949 µM, first compound 0.00316 µM",131%
same,"viability, T/C","second compound 0.00949 µM, first compound 0.01 µM",154%
same,"viability, T/C","second compound 0.00949 µM, first compound 0.0316 µM",126%
same,"viability, T/C","second compound 0.00949 µM, first compound 0.1 µM",127%
same,"viability, T/C","second compound 0.03 µM, first compound 0.000316 µM",108%
same,"viability, T/C","second compound 0.03 µM, first compound 0.001 µM",113%
same,"viability, T/C","second compound 0.03 µM, first compound 0.00316 µM",123%
same,"viability, T/C","second compound 0.03 µM, first compound 0.01 µM",101%
same,"viability, T/C","second compound 0.03 µM, first compound 0.0316 µM",107%
same,"viability, T/C","second compound 0.03 µM, first compound 0.1 µM",74.8%
same,"viability, T/C","second compound 0.0949 µM, first compound 0.000316 µM",65.9%
same,"viability, T/C","second compound 0.0949 µM, first compound 0.001 µM",57.9%
same,"viability, T/C","second compound 0.0949 µM, first compound 0.00316 µM",43.3%
same,"viability, T/C","second compound 0.0949 µM, first compound 0.01 µM",51.7%
same,"viability, T/C","second compound 0.0949 µM, first compound 0.0316 µM",58.1%
same,"viability, T/C","second compound 0.0949 µM, first compound 0.1 µM",56.8%
same,"viability, T/C","second compound 0.3 µM, first compound 0.000316 µM",39.4%
same,"viability, T/C","second compound 0.3 µM, first compound 0.001 µM",38.8%
same,"viability, T/C","second compound 0.3 µM, first compound 0.00316 µM",43.8%
same,"viability, T/C","second compound 0.3 µM, first compound 0.01 µM",40%
same,"viability, T/C","second compound 0.3 µM, first compound 0.0316 µM",34.1%
same,"viability, T/C","second compound 0.3 µM, first compound 0.1 µM",43%
same,"viability, T/C","second compound 0.949 µM, first compound 0.000316 µM",30.3%
same,"viability, T/C","second compound 0.949 µM, first compound 0.001 µM",26.9%
same,"viability, T/C","second compound 0.949 µM, first compound 0.00316 µM",29.1%
same,"viability, T/C","second compound 0.949 µM, first compound 0.01 µM",25.7%
same,"viability, T/C","second compound 0.949 µM, first compound 0.0316 µM",29.1%
same,"viability, T/C","second compound 0.949 µM, first compound 0.1 µM",23.8%
same,"viability, T/C","second compound 3 µM, first compound 0.000316 µM",18.3%
same,"viability, T/C","second compound 3 µM, first compound 0.001 µM",18.6%
same,"viability, T/C","second compound 3 µM, first compound 0.00316 µM",19.9%
same,"viability, T/C","second compound 3 µM, first compound 0.01 µM",15.5%
same,"viability, T/C","second compound 3 µM, first compound 0.0316 µM",16.5%
same,"viability, T/C","second compound 3 µM, first compound 0.1 µM",19.6%
C=C(F)C(=O)N1CCN(c2nc(OCC3CCCN3C)nc3c2CCN(c2cccc4cccc(Cl)c24)C3)CC1CC#N (centres undefined) + CNC(C)C(=O)NC1CN(S(=O)(=O)c2cccc(S(=O)(=O)N3CCC4CCC(C(=O)NC(c5ccccc5)c5ccccc5)N4C(=O)C(NC(=O)C(C)NC)C3)c2)CCC2CCC(C(=O)NC(c3ccccc3)c3ccccc3)N2C1=O,IC50,second compound 0.00316 µM,< 31.6 nM
same,IC50,second compound 0.01 µM,< 31.6 nM
same,IC50,second compound 0.0316 µM,< 31.6 nM
same,IC50,second compound 0.1 µM,< 31.6 nM
same,IC50,second compound 0.316 µM,< 31.6 nM
same,IC50,second compound 1 µM,< 31.6 nM
same,"viability, T/C","second compound 0.00316 µM, first compound 0.0316 µM",47.7%
same,"viability, T/C","second compound 0.00316 µM, first compound 0.1 µM",38.8%
same,"viability, T/C","second compound 0.00316 µM, first compound 0.316 µM",29.2%
same,"viability, T/C","second compound 0.00316 µM, first compound 1 µM",15.9%
same,"viability, T/C","second compound 0.00316 µM, first compound 3.16 µM",1.96%
same,"viability, T/C","second compound 0.00316 µM, first compound 10 µM",0.09%
same,"viability, T/C","second compound 0.01 µM, first compound 0.0316 µM",14%
same,"viability, T/C","second compound 0.01 µM, first compound 0.1 µM",12%
same,"viability, T/C","second compound 0.01 µM, first compound 0.316 µM",15%
same,"viability, T/C","second compound 0.01 µM, first compound 1 µM",9.45%
same,"viability, T/C","second compound 0.01 µM, first compound 3.16 µM",2.95%
same,"viability, T/C","second compound 0.01 µM, first compound 10 µM",0.08%
same,"viability, T/C","second compound 0.0316 µM, first compound 0.0316 µM",13.4%
same,"viability, T/C","second compound 0.0316 µM, first compound 0.1 µM",9.36%
same,"viability, T/C","second compound 0.0316 µM, first compound 0.316 µM",10.1%
same,"viability, T/C","second compound 0.0316 µM, first compound 1 µM",7.62%
same,"viability, T/C","second compound 0.0316 µM, first compound 3.16 µM",2.55%
same,"viability, T/C","second compound 0.0316 µM, first compound 10 µM",0.08%
same,"viability, T/C","second compound 0.1 µM, first compound 0.0316 µM",12%
same,"viability, T/C","second compound 0.1 µM, first compound 0.1 µM",10.8%
same,"viability, T/C","second compound 0.1 µM, first compound 0.316 µM",11%
same,"viability, T/C","second compound 0.1 µM, first compound 1 µM",7.97%
same,"viability, T/C","second compound 0.1 µM, first compound 3.16 µM",1.68%
same,"viability, T/C","second compound 0.1 µM, first compound 10 µM",0.08%
same,"viability, T/C","second compound 0.316 µM, first compound 0.0316 µM",12%
same,"viability, T/C","second compound 0.316 µM, first compound 0.1 µM",12%
same,"viability, T/C","second compound 0.316 µM, first compound 0.316 µM",11.9%
same,"viability, T/C","second compound 0.316 µM, first compound 1 µM",7.65%
same,"viability, T/C","second compound 0.316 µM, first compound 3.16 µM",2.03%
same,"viability, T/C","second compound 0.316 µM, first compound 10 µM",0.1%
same,"viability, T/C","second compound 1 µM, first compound 0.0316 µM",12.6%
same,"viability, T/C","second compound 1 µM, first compound 0.1 µM",10.9%
same,"viability, T/C","second compound 1 µM, first compound 0.316 µM",10.3%
same,"viability, T/C","second compound 1 µM, first compound 1 µM",7.96%
same,"viability, T/C","second compound 1 µM, first compound 3.16 µM",1.41%
same,"viability, T/C","second compound 1 µM, first compound 10 µM",0.18%
